These are literature values, as cited in US20020001575A1, “Nutritional system for nervous system disorders” (priority 2000, published 2002).

The conditions of the series: autistic children and adults, 18 consecutive studies 1965-1996.

Consider Vitamin B-6, for which the helpfulness in autism entry is “helpful in almost half of all autistic children and adults”.
